Molecular target: T1, wild-type full-length Syk : integrin β3 cytoplasmic domain (Homo sapiens, UniProt P43405)
T1 construct: endogenous in cells; host or cells: THP-1 whole cell lysate
Assay: Peptide affinity pull-down of Syk from THP-1 whole cell lysate on β3 peptide beads
Type: binding
Settings: bβ3(fl) on neutravidin agarose beads, western blot
Description: THP-1 cells were washed in PIPES buffer (10 mM PIPES, 50 mM NaCl pH 6.8) and resuspended at 10 × 10^6 cells/ml in PIPES lysis buffer [PIPES buffer containing 1% Triton X-100, 1 mM EDTA, 1 mM Na3VO4, 50 mM NaF, 150 mM sucrose, protease inhibitors (cOmplete, Mini, EDTA-free Protease Inhibitor Cocktail, Roche, cat#11836170001)] and 0.1 mM N-ethylmaleimide. The cells were incubated overnight in lysis buffer at 4°C with end-over-end rotation. Lysates were then passed through a 21-gauge needle and centrifuged at 13,000 × g for 30 min at 4°C. Lysate protein concentrations were determined by using Quick Start Bradford Dye reagent (BioRad cat#5000202). […] Eluted samples were run on SDS-PAGE (4–20%, BioRad, cat# 4561093) and immunoblotted for Syk using anti-Syk antibody at 1:1,000 (4D10; SantaCruz) dilution followed by GAM-HRP at 1:5,000 and detected with SuperSignal West Pico (Thermo Scientific, cat# 34580). Western blots were scanned, and band intensity was measured using ImageJ ([31]) to compare and determine the effect of the drug on Syk/β3 binding. […]
Figure 3 Dose-response curves in primary and orthogonal screens. […] Data are expressed as mean fluorescence (Fl520) ± range from duplicates, and one representative experiment of “n” performed is shown. […] Data are expressed as mean abs450 ± SEM from triplicate determinations, and one of three representative experiments is shown. […]

- inhibition of wild-type Syk interaction with integrin β3 cytoplasmic domains: inhibited
SMILES: CC(C)(O/N=C(\C(=O)N[C@@H]1C(=O)N2C(C(=O)[O-])=C(C[n+]3ccccc3)CS[C@H]12)c1csc(N)n1)C(=O)O [ceftazidime]

From paper PMC7819857, “Identification of Inhibitors of Integrin Cytoplasmic Domain Interactions With Syk” (Frontiers in Immunology, 2021)
